According to patent US20220048896A1, “PYRAZOLE COMPOUNDS SUBSTITUTED WITH HETEROARYL AND PHARMACEUTICAL USE THEREOF” (Japan Tobacco Inc., priority 2018, published 2022):

Assays:
Assay type in all cases: cell-based
[1] = test system: Salmonella typhimurium TA98; assay: Ames test (reverse mutation test), strain TA98; settings: for potential to induce reverse mutations, TA98: in the presence of S9 mix
Procedure: (§1) Metabolites 1 to 3 and Metabolites A to E were each tested herein. The purpose of this test is to evaluate the potential of each metabolite to induce reverse mutations in the standard strains of Salmonella typhimurium (TA98, TA1537, TA100, and TA1535) and Escherichia coli (WP2uvrA), in either the presence or absence of a rat liver metabolic activation system (S9 mix).
(§2) The solvent used herein was dimethyl sulfoxide (DMSO, 100 μL/plate).
(§3) The test was performed by the pre-incubation method with or without S9 mix. When the test was performed without S9 mix, sodium phosphate buffer solution (pH 7.4) was added.
(§4) 0.5 mL of S9 mix or 0.5 mL of 0.1 mol/L sodium phosphate buffer solution (pH 7.4), and 0.1 mL of the bacterial culture solution were added to a test tube containing 0.1 mL of the negative control formulation (DMSO alone), the metabolite, or the positive control formulation. The mixtures were pre-incubated at 37° C. for 20 minutes while shaking. After the pre-incubation period, 2 mL of top agar were added and the mixtures were vortex-mixed and seeded onto plates. Two plates per treatment were used. Each plate was incubated at 37±1° C. for 48 hours or more and the revertant colonies were counted. The mean number of revertant colonies for each treatment plate was then calculated. The presence or absence of growth inhibition due to any antibacterial effect of the test article and precipitation of the test article was observed grossly or under a stereomicroscope. […] Evaluation was based on mean values with no statistical comparisons being used.

[2] = test system: Salmonella typhimurium TA1537; assay: Ames test (reverse mutation test), strain TA1537
Procedure: as §1, §2, §3, §4

[3] = test system: Salmonella typhimurium TA100; assay: Ames test (reverse mutation test), strain TA100; settings: in the presence of S9 mix
Procedure: as §1, §2, §3, §4

[4] = test system: Salmonella typhimurium TA1535; assay: Ames test (reverse mutation test), strain TA1535
Procedure: as §1, §2, §3
(§5) 0.5 mL of S9 mix or 0.5 mL of 0.1 mol/L sodium phosphate buffer solution (pH 7.4), and 0.1 mL of the bacterial culture solution were added to a test tube containing 0.1 mL of the negative control formulation (DMSO alone), the metabolite, or the positive control formulation. The mixtures were pre-incubated at 37° C. for 20 minutes while shaking. After the pre-incubation period, 2 mL of top agar were added and the mixtures were vortex-mixed and seeded onto plates. Two plates per treatment were used. Each plate was incubated at 37±1° C. for 48 hours or more and the revertant colonies were counted. The mean number of revertant colonies for each treatment plate was then calculated. […]

Escherichia coli WP2uvrA = assay: Ames test (reverse mutation test), strain WP2uvrA; settings: in the absence of S9 mix
Procedure: as §1, §2, §3, §5

SMILES | Number of revertant colonies TA98 ([1]; S9 mix +, 6.9 μg/plate) | Number of revertant colonies TA98 ([1]; S9 mix +, 21 μg/plate) | Number of revertant colonies TA98 ([1]; S9 mix +, 62 μg/plate) | Number of revertant colonies TA98 ([1]; S9 mix +, 185 μg/plate) | Number of revertant colonies TA98 ([1]; S9 mix +, 556 μg/plate) | Number of revertant colonies TA98 ([1]; S9 mix +, 1667 μg/plate) | Number of revertant colonies TA98 ([1]; S9 mix +, 5000 μg/plate) | Number of revertant colonies TA98 ([1]; S9 mix −, 6.9 μg/plate) | Number of revertant colonies TA98 ([1]; S9 mix −, 21 μg/plate) | Number of revertant colonies TA98 ([1]; S9 mix −, 62 μg/plate) | Number of revertant colonies TA98 ([1]; S9 mix −, 185 μg/plate) | Number of revertant colonies TA98 ([1]; S9 mix −, 556 μg/plate) | Number of revertant colonies TA98 ([1]; S9 mix −, 1667 μg/plate) | Number of revertant colonies TA98 ([1]; S9 mix −, 5000 μg/plate) | potential to induce reverse mutations, TA1537 ([2]; in the presence of S9 mix) | potential to induce reverse mutations, TA98 [1] | potential to induce reverse mutations, TA100 [3] | also measured
CC(C)(Oc1cc(F)cc(-c2cc(N)nn2-c2cnc(C(F)(F)F)nc2)c1)C(F)(F)F [Metabolite 1] | 37 | 39 | 40 | 40 | 34 | 27 | 21 | 32 | 32 | 31 | 29 | 30 | 15 | 7 | – | – | – | –
Nc1cc(-c2cc(F)cc(OC(F)(F)F)c2)n(-c2cncc(F)c2)n1 [Metabolite 2] | 35 | 37 | 35 | 36 | 22 | 20 | 16 | 30 | 30 | 28 | 28 | 12 | 9 | 7 | – | – | – | –
Nc1cc(-c2cc(F)cc(OC(F)(F)F)c2)n(-c2cncc(C(F)(F)F)c2)n1 [Metabolite 3] | 36 | 38 | 38 | 33 | 27 | 25 | 17 | 29 | 28 | 29 | 26 | 24 | 18 | 14 | – | – | – | –
CC(C)(OCc1cc(F)cc(-c2cc(N)nn2-c2ccc(F)cc2)c1)C(F)(F)F [Metabolite A, reference compound] | – | – | – | – | – | – | – | – | – | – | – | – | – | – | had potential to induce reverse mutations | had potential to induce reverse mutations | – | –
Nc1cc(-c2cccc(OCC(F)(F)F)c2)n(-c2ccc(F)cc2)n1 [Metabolite B] | – | – | – | – | – | – | – | – | – | – | – | – | – | – | had potential to induce reverse mutations | had potential to induce reverse mutations | had potential to induce reverse mutations | potential to induce reverse mutations, TA1535 ([4]; in the presence of S9 mix): had potential to induce reverse mutations; potential to induce reverse mutations, TA1537 ([2]; in the absence of S9 mix): had potential to induce reverse mutations
Cc1ccc(-n2nc(N)cc2-c2cccc(OCC(F)(F)F)c2)cc1 [Metabolite C] | – | – | – | – | – | – | – | – | – | – | – | – | – | – | had potential to induce reverse mutations | had potential to induce reverse mutations | had potential to induce reverse mutations | potential to induce reverse mutations, WP2uvrA (Escherichia coli WP2uvrA): had potential to induce reverse mutations
Nc1cc(-c2cccc(OC(F)(F)F)c2)n(-c2cccc(F)c2)n1 [Metabolite D] | – | – | – | – | – | – | – | – | – | – | – | – | – | – | – | – | had potential to induce reverse mutations | potential to induce reverse mutations, TA1535 ([4]; in the absence of S9 mix): had potential to induce reverse mutations
Cc1cccc(-n2nc(N)cc2-c2cccc(OC(F)(F)F)c2)c1 [Metabolite E] | – | – | – | – | – | – | – | – | – | – | – | – | – | – | had potential to induce reverse mutations | had potential to induce reverse mutations | had potential to induce reverse mutations | –
